Experimental data: the CheMixHub viscosity set
“And” between values parts separate entries of the source, which are not always exact repeats. Equal values may be shown once. ± gives the uncertainty stated by the source.

Assay: xn = mol fraction of the nth substance listed

Structure (SMILES): OCCOCCO + O
- viscosity (293.15 K, 100 kPa, x2 = 0.013): 37.31 ± 1.5 mPa·s
- viscosity (293.15 K, 100 kPa, x2 = 0.037): 35.38 ± 2.9 mPa·s and 33.15 ± 5.9 mPa·s
- viscosity (293.15 K, 100 kPa, x2 = 0.038): 34.7 ± 3 mPa·s
- viscosity (293.15 K, 100 kPa, x2 = 0.075): 34.97 ± 1.5 mPa·s
- viscosity (293.15 K, 100 kPa, x2 = 0.082): 34.55 ± 1.5 mPa·s
- viscosity (298.15 K, 100 kPa, x2 = 0.013): 29.02 ± 1.2 mPa·s
- viscosity (298.15 K, 100 kPa, x2 = 0.037): 27.76 ± 4.6 mPa·s
- viscosity (298.15 K, 100 kPa, x2 = 0.075): 27.47 ± 1.6 mPa·s
- viscosity (298.15 K, 100 kPa, x2 = 0.082): 27.12 ± 1.2 mPa·s
- viscosity (298.15 K, 101.33 kPa, x2 = 0.1041): 25.71 ± 0.44 mPa·s
- viscosity (298.15 K, 101.33 kPa, x2 = 0.2105): 24.14 ± 0.41 mPa·s
- viscosity (298.15 K, 101.33 kPa, x2 = 0.2697): 22.9 ± 0.39 mPa·s
- viscosity (298.15 K, 101.33 kPa, x2 = 0.4009): 19.9 ± 0.34 mPa·s
- viscosity (298.15 K, 101.33 kPa, x2 = 0.5145): 16.51 ± 0.29 mPa·s
- viscosity (298.15 K, 101.33 kPa, x2 = 0.6157): 12.99 ± 0.23 mPa·s
- viscosity (298.15 K, 101.33 kPa, x2 = 0.7095): 9.442 ± 0.18 mPa·s
- viscosity (298.15 K, 101.33 kPa, x2 = 0.825): 5.193 ± 0.11 mPa·s
- viscosity (298.15 K, 101.33 kPa, x2 = 0.9059): 2.772 ± 0.062 mPa·s
- viscosity (303.15 K, 100 kPa, x2 = 0.013): 23.06 ± 0.95 mPa·s
- viscosity (303.15 K, 100 kPa, x2 = 0.038): 21.92 ± 1.1 mPa·s
- viscosity (303.15 K, 100 kPa, x2 = 0.075): 21.95 ± 1.2 mPa·s
- viscosity (303.15 K, 101 kPa, x1 = 0.002): 0.836 ± 0.17 mPa·s
- viscosity (303.15 K, 101 kPa, x1 = 0.004): 0.863 ± 0.17 mPa·s
- viscosity (303.15 K, 101 kPa, x1 = 0.005): 0.883 ± 0.18 mPa·s
- viscosity (303.15 K, 101 kPa, x1 = 0.007): 0.91 ± 0.18 mPa·s
- viscosity (303.15 K, 101 kPa, x1 = 0.009): 0.938 ± 0.19 mPa·s
- viscosity (303.15 K, 101 kPa, x1 = 0.01): 0.975 ± 0.2 mPa·s and 1.02 ± 0.2 mPa·s and 1.076 ± 0.21 mPa·s
- viscosity (303.15 K, 101 kPa, x1 = 0.018): 1.171 ± 0.23 mPa·s
- viscosity (303.15 K, 101.33 kPa, x1 = 0.0004): 0.778 ± 0.011 mPa·s
- viscosity (303.15 K, 101.33 kPa, x1 = 0.0007): 0.785 ± 0.011 mPa·s
- viscosity (303.15 K, 101.33 kPa, x1 = 0.0015): 0.788 ± 0.011 mPa·s
- viscosity (303.15 K, 101.33 kPa, x1 = 0.0027): 0.804 ± 0.011 mPa·s
- viscosity (303.15 K, 101.33 kPa, x1 = 0.0047): 0.836 ± 0.012 mPa·s
- viscosity (303.15 K, 101.33 kPa, x1 = 0.0193): 1.02 ± 0.014 mPa·s
- viscosity (303.15 K, 101.33 kPa, x1 = 0.0548): 1.579 ± 0.02 mPa·s
- viscosity (303.15 K, 101.33 kPa, x1 = 0.0991): 2.467 ± 0.031 mPa·s
- viscosity (303.15 K, 101.33 kPa, x1 = 0.1966): 4.98 ± 0.06 mPa·s
- viscosity (303.15 K, 101.33 kPa, x1 = 0.2956): 7.943 ± 0.087 mPa·s
- viscosity (303.15 K, 101.33 kPa, x1 = 0.3956): 10.97 ± 0.12 mPa·s
- viscosity (303.15 K, 101.33 kPa, x1 = 0.4905): 13.62 ± 0.14 mPa·s
- viscosity (303.15 K, 101.33 kPa, x1 = 0.6406): 17.06 ± 0.17 mPa·s
- viscosity (303.15 K, 101.33 kPa, x1 = 0.8543): 20.37 ± 0.2 mPa·s
- viscosity (308.15 K, 100 kPa, x2 = 0.013): 18.69 ± 0.77 mPa·s
- viscosity (308.15 K, 100 kPa, x2 = 0.037): 18.11 ± 2.1 mPa·s and 16.84 ± 0.82 mPa·s
- viscosity (308.15 K, 100 kPa, x2 = 0.082): 17.7 ± 0.73 mPa·s
- viscosity (308.15 K, 101 kPa, x1 = 0.002): 0.736 ± 0.15 mPa·s
- viscosity (308.15 K, 101 kPa, x1 = 0.004): 0.753 ± 0.15 mPa·s
- viscosity (308.15 K, 101 kPa, x1 = 0.005): 0.805 ± 0.16 mPa·s
- viscosity (308.15 K, 101 kPa, x1 = 0.007): 0.832 ± 0.17 mPa·s
- viscosity (308.15 K, 101 kPa, x1 = 0.009): 0.867 ± 0.17 mPa·s
- viscosity (308.15 K, 101 kPa, x1 = 0.01): 0.902 ± 0.18 mPa·s and 0.938 ± 0.19 mPa·s and 0.991 ± 0.2 mPa·s
- viscosity (308.15 K, 101 kPa, x1 = 0.018): 1.082 ± 0.22 mPa·s
- viscosity (308.15 K, 101 kPa, x1 = 0.02): 1.028 ± 0.21 mPa·s
- viscosity (308.15 K, 101 kPa, x1 = 0.7525): 15.65 ± 0.43 mPa·s
- viscosity (308.15 K, 101.33 kPa, x1 = 0.0004): 0.704 ± 0.01 mPa·s
- viscosity (308.15 K, 101.33 kPa, x1 = 0.0007): 0.71 ± 0.01 mPa·s
- viscosity (308.15 K, 101.33 kPa, x1 = 0.0015): 0.717 ± 0.01 mPa·s
- viscosity (308.15 K, 101.33 kPa, x1 = 0.0027): 0.73 ± 0.01 mPa·s
- viscosity (308.15 K, 101.33 kPa, x1 = 0.0047): 0.749 ± 0.01 mPa·s
- viscosity (308.15 K, 101.33 kPa, x1 = 0.0193): 0.905 ± 0.012 mPa·s
- viscosity (308.15 K, 101.33 kPa, x1 = 0.0991): 2.107 ± 0.026 mPa·s
- viscosity (308.15 K, 101.33 kPa, x1 = 0.1966): 4.169 ± 0.05 mPa·s
- viscosity (308.15 K, 101.33 kPa, x1 = 0.2956): 6.484 ± 0.073 mPa·s
- viscosity (308.15 K, 101.33 kPa, x1 = 0.3956): 8.911 ± 0.096 mPa·s
- viscosity (308.15 K, 101.33 kPa, x1 = 0.4905): 10.95 ± 0.11 mPa·s
- viscosity (308.15 K, 101.33 kPa, x1 = 0.5794): 12.64 ± 0.13 mPa·s
- viscosity (308.15 K, 101.33 kPa, x1 = 0.775): 15.47 ± 0.16 mPa·s
- viscosity (308.15 K, 101.33 kPa, x1 = 0.8543): 16.25 ± 0.16 mPa·s
- viscosity (308.15 K, 101.33 kPa, x1 = 0.917): 16.82 ± 0.17 mPa·s
- viscosity (313.15 K, 100 kPa, x2 = 0.013): 15.39 ± 0.63 mPa·s
- viscosity (313.15 K, 100 kPa, x2 = 0.037): 14.96 ± 0.65 mPa·s
- viscosity (313.15 K, 100 kPa, x2 = 0.038): 15.25 ± 1 mPa·s
- viscosity (313.15 K, 100 kPa, x2 = 0.075): 14.8 ± 0.76 mPa·s
- viscosity (313.15 K, 101 kPa, x1 = 0.002): 0.67 ± 0.13 mPa·s
- viscosity (313.15 K, 101 kPa, x1 = 0.004): 0.685 ± 0.14 mPa·s
- viscosity (313.15 K, 101 kPa, x1 = 0.005): 0.703 ± 0.14 mPa·s
- viscosity (313.15 K, 101 kPa, x1 = 0.007): 0.738 ± 0.15 mPa·s
- viscosity (313.15 K, 101 kPa, x1 = 0.009): 0.78 ± 0.16 mPa·s
- viscosity (313.15 K, 101 kPa, x1 = 0.01): 0.83 ± 0.17 mPa·s and 0.872 ± 0.17 mPa·s and 0.907 ± 0.18 mPa·s
- viscosity (313.15 K, 101 kPa, x1 = 0.018): 0.994 ± 0.2 mPa·s
- viscosity (313.15 K, 101 kPa, x1 = 0.02): 0.958 ± 0.19 mPa·s
- viscosity (318.15 K, 100 kPa, x2 = 0.013): 12.84 ± 0.53 mPa·s
- viscosity (318.15 K, 100 kPa, x2 = 0.037): 12.51 ± 1.1 mPa·s
- viscosity (318.15 K, 100 kPa, x2 = 0.038): 12.4 ± 0.94 mPa·s
- viscosity (318.15 K, 100 kPa, x2 = 0.075): 12.37 ± 0.6 mPa·s
- viscosity (318.15 K, 101 kPa, x1 = 0.002): 0.612 ± 0.12 mPa·s
- viscosity (318.15 K, 101 kPa, x1 = 0.004): 0.621 ± 0.12 mPa·s
- viscosity (318.15 K, 101 kPa, x1 = 0.005): 0.654 ± 0.13 mPa·s
- viscosity (318.15 K, 101 kPa, x1 = 0.007): 0.688 ± 0.14 mPa·s
- viscosity (318.15 K, 101 kPa, x1 = 0.009): 0.729 ± 0.15 mPa·s
- viscosity (318.15 K, 101 kPa, x1 = 0.01): 0.779 ± 0.16 mPa·s and 0.821 ± 0.16 mPa·s and 0.864 ± 0.17 mPa·s
- viscosity (318.15 K, 101 kPa, x1 = 0.018): 0.949 ± 0.19 mPa·s
- viscosity (318.15 K, 101 kPa, x1 = 0.02): 0.906 ± 0.18 mPa·s
- viscosity (323.15 K, 100 kPa, x2 = 0.013): 10.85 ± 0.44 mPa·s
- viscosity (323.15 K, 100 kPa, x2 = 0.037): 10.58 ± 0.9 mPa·s and 9.873 ± 0.41 mPa·s
- viscosity (323.15 K, 100 kPa, x2 = 0.038): 10.49 ± 0.46 mPa·s
- viscosity (323.15 K, 100 kPa, x2 = 0.075): 10.44 ± 0.49 mPa·s
- viscosity (323.15 K, 100 kPa, x2 = 0.082): 10.35 ± 0.42 mPa·s
- viscosity (323.15 K, 101 kPa, x1 = 0.002): 0.555 ± 0.11 mPa·s
- viscosity (323.15 K, 101 kPa, x1 = 0.004): 0.571 ± 0.11 mPa·s
- viscosity (323.15 K, 101 kPa, x1 = 0.005): 0.587 ± 0.12 mPa·s
- viscosity (323.15 K, 101 kPa, x1 = 0.007): 0.619 ± 0.12 mPa·s
- viscosity (323.15 K, 101 kPa, x1 = 0.009): 0.667 ± 0.13 mPa·s
- viscosity (323.15 K, 101 kPa, x1 = 0.01): 0.707 ± 0.14 mPa·s and 0.747 ± 0.15 mPa·s and 0.78 ± 0.16 mPa·s
- viscosity (323.15 K, 101 kPa, x1 = 0.018): 0.869 ± 0.17 mPa·s
- viscosity (323.15 K, 101 kPa, x1 = 0.02): 0.828 ± 0.17 mPa·s
